This test deals with RLS patient. Nature of the test: Treatment of one RLS patient with thalidomide; RLS severity and sleep disturbance observed weekly with four questionnaires. To be noted: for IRLSSG severity: 100 mg thalidomide daily plus two tablets pramipexole 0.18 mg, scale 0 to 40; for ESS sleepiness: Epworth Sleepiness Scale 0 to 24; for MOS sleep disturbance: range 0-100%; for RLS-6 score: scale 0 to 10. In kind it is in vivo, human. The procedure: The patient had been diagnosed with RLS but had suffered from the disease since childhood. They had family history of RLS with their parent and two siblings being affected.
The patient was washed off the concurrent medication, with the exception of two tablets of 0.18 mg pramipexole, which was maintained throughout the study.
After the baseline period, they were prescribed 100 mg of the inhibitor of the cereblon (CRBN) thalidomide (i.e. 2-(2,6-dioxopiperidin-3-yl)-2,3-dihydro-1H-isoindole-1,3-dione) daily, which they continued taking for three weeks in addition to their two tables pramipexol 0,18 mg treatment.
Throughout the six-week period, the RLS severity and sleep disturbance of the patient were weekly observed with four different questionnaires: • 1. IRLSSG severity scale: This is the gold standard questionnaire to evaluate RLS severity both in clinical practice and in pharmaceutical studies. The scale is based on 10 questions answered by the patient, and final severity score ranges from 0 to 40. On the IRLSSG scale, 0 points corresponds to no RLS, 1-10 points corresponds to mild RLS, 11-20 points corresponds to moderate RLS, 21-30 points corresponds to severe RLS and 31-40 points corresponds to very severe RLS. • 2. RLS-6 scale. This is an alternative scale used to evaluate different aspects of RLS. The average score may be used to evaluate the overall severity of RLS. The scale ranges from 0 to 10, with 0 indicating no RLS and 10 being the most severe RLS severity score. • 3. Epworth Sleepiness Scale (ESS). This is a gold standard questionnaire used to evaluate daytime sleepiness in clinical practice and in pharmaceutical studies. The scale ranges from 0 to 24, where 0-5 corresponds to normal daytime sleepiness, 6-10 corresponds to higher normal daytime sleepiness, 11-12 corresponds to mild excessive daytime sleepiness, 13-15 corresponds to moderate excessive daytime sleepiness and 16-24 corresponds to severe daytime sleepiness. • 4. MOS Sleep Scale. This is a questionnaire used to evaluate sleep disturbance, sleep efficiency, sleep adequacy and other related parameters with different subscores derived from the answers. In this study, the sleep disturbance score was used. The range is 0-100%, 100% indicating the most severe sleep disturbance.

Where [1] appears, read: week 4, 100 mg thalidomide daily plus pramipexole.
[2] abbreviates: week 5, 100 mg thalidomide daily plus pramipexole.
[3] abbreviates: week 6, 100 mg thalidomide daily plus pramipexole.

Consider `O=C1CCC(N2C(=O)c3ccccc3C2=O)C(=O)N1` (stereo not shown) [Thalidomide, 2-(2,6-dioxopiperidin-3-yl)-2,3-dihydro-1H-isoindole-1,3-dione], for which the IRLSSG severity (week 4 (first treatment week)) was 21 points, the IRLSSG severity (week 5 (second treatment week)) is 20 points and the IRLSSG severity (week 6 (third treatment week)) is reported as 16 points. In addition, the ESS sleepiness runs as follows: under setting [1], 4; under setting [2], 7; under setting [3], 3. Also, the MOS sleep disturbance runs as follows: under setting [1], 31.3%; under setting [2], 46.3%; under setting [3], 43.8%. The RLS-6 score runs as follows: under setting [1], 4.7; under setting [2], 2.7; under setting [3], 2. Where the note is “weeks 4-6, 100 mg thalidomide daily plus pramipexole, compared with baseline weeks 1-3”, the “treatment success of RLS on all four measured scores” value was “significantly benefitted”.

The record behind these values is EP3421037A1, “RLS TREATMENT WITH INHIBITORS OF THE CEREBLON (CRBN) PROTEIN” (Klinikum rechts der Isar der Technischen Universität München, priority 2017, dated 2019).
